Results as given in ChEMBL document CHEMBL1201862, “PubChem BioAssay data set” (2004).
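Step 1: Grow cells in 96-well plates. Step 2: Expose to compound for 48 hours at 5 concentrations. Step 3: Interpolate endpoints linearly; if unreached, use highest concentration. GI50 = concentration required for 50% inhibition of growth.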 The source made the active and inactive calls. No stated cut-off is given here; in the data, active = GI50 up to about 1.1 µM and inactive = higher.

Experiments:
Test in all cases: DTP human tumour cell line panel, 48 h
DLD-1 = system: DLD-1
DMS-114 = system: DMS-114
DMS-273 = system: DMS-273
HOP-18 = system: HOP-18
M19-MEL = system: M19-MEL
SNB-78 = system: SNB-78
XF498 = system: XF498
LXFL 529 = system: LXFL 529
RXF 631 = system: RXF 631

Measured: GI50

C=C(C)CC(C(=O)O)c1ccc(C)cc1 (stereo not drawn)
inactive: DLD-1 > 100 µM | DMS-114 > 100 µM | DMS-273 > 100 µM | HOP-18 > 100 µM | M19-MEL > 100 µM | SNB-78 > 100 µM | XF498 > 100 µM

OCCCCCNc1ccnc2cc(Cl)ccc12
inactive: DLD-1 > 100 µM | DMS-114 36.7 µM | DMS-273 > 100 µM | HOP-18 > 100 µM | LXFL 529 > 100 µM | M19-MEL > 100 µM | SNB-78 > 100 µM | XF498 > 100 µM

COc1cc(Nc2nc3cc(C(F)(F)F)ccc3nc2-c2ccccc2)cc(OC)c1OC
inactive: DLD-1 > 100 µM | DMS-114 > 100 µM | DMS-273 22.8 µM | LXFL 529 > 100 µM | RXF 631 61.8 µM | SNB-78 46.2 µM | XF498 32.5 µM

NC(=O)/N=C1\NC(Cc2ccccc2)C(=O)N1Cc1ccccc1 (stereo not drawn)
inactive: DLD-1 > 100 µM | DMS-114 > 100 µM | DMS-273 > 100 µM | LXFL 529 > 100 µM | M19-MEL > 100 µM | SNB-78 > 100 µM | XF498 35.6 µM

C#CCN(N=O)C(=O)NC(CCCNC(=O)OCc1ccccc1)C(=O)OCc1ccccc1 (stereo not drawn)
inactive: DLD-1 57.1 µM | DMS-114 67.3 µM | DMS-273 > 100 µM | LXFL 529 72.9 µM | M19-MEL > 100 µM | SNB-78 > 100 µM | XF498 18 µM

CCN1C(=O)/C(=C\c2coc3ccccc3c2=O)SC1=S
inactive: DLD-1 > 100 µM | DMS-114 > 100 µM | DMS-273 59 µM | HOP-18 80.4 µM | LXFL 529 > 100 µM | M19-MEL > 100 µM | SNB-78 56.8 µM | XF498 40 µM

Cc1c2ncccc2c(C)c2c1[nH]c1ccccc12
inactive: DLD-1 10.1 µM | DMS-273 4.84 µM | HOP-18 14.2 µM | LXFL 529 11 µM | M19-MEL 13.4 µM | SNB-78 14.6 µM | XF498 12.8 µM

COc1cc(-c2cc(=O)c3cc(C)c(C)c(C(=O)O)c3o2)cc(OC)c1OC
inactive: DLD-1 > 100 µM | DMS-114 > 100 µM | DMS-273 > 100 µM | LXFL 529 > 100 µM | M19-MEL > 100 µM | RXF 631 > 100 µM | SNB-78 > 100 µM | XF498 > 100 µM

O=C(c1ccccc1)c1nnc(C(=O)c2ccccc2)nn1
inactive: DLD-1 > 344 µM | DMS-273 > 344 µM | HOP-18 > 344 µM | LXFL 529 266 µM | M19-MEL > 344 µM | SNB-78 170 µM

CCOc1cccc2cccnc12
inactive: DLD-1 > 100 µM | DMS-114 > 100 µM | HOP-18 57.5 µM | LXFL 529 > 100 µM | XF498 > 100 µM

CNC(=O)NC(CCCCNC(=O)OCc1ccccc1)C(=O)OCc1ccccc1 (stereo not drawn)
inactive: DLD-1 > 100 µM | DMS-114 28.1 µM | DMS-273 35.9 µM | LXFL 529 33.9 µM | M19-MEL 17 µM | SNB-78 33.4 µM | XF498 15.2 µM

CC1C(c2ccccc2)=CCON1c1ccccc1 (stereo not drawn)
inactive: DLD-1 > 100 µM | DMS-114 > 100 µM | LXFL 529 > 100 µM | M19-MEL > 100 µM | SNB-78 > 100 µM | XF498 > 100 µM

CCCCCCCCCCCCCCCCc1c(C(=O)OC)[nH]c(=S)[nH]c1=O
inactive: DLD-1 > 50 µM | DMS-273 > 50 µM | HOP-18 > 50 µM | LXFL 529 > 50 µM | M19-MEL > 50 µM | RXF 631 > 50 µM | SNB-78 > 50 µM | XF498 > 50 µM

O=Cc1cc2sc(C=O)cc2s1
inactive: DLD-1 > 100 µM | DMS-114 > 100 µM | DMS-273 > 100 µM | LXFL 529 > 100 µM | M19-MEL > 100 µM | RXF 631 > 100 µM | SNB-78 > 100 µM | XF498 > 100 µM

CC1=NC(C(C)C)C(=O)O1 (stereo not drawn)
inactive: DLD-1 56.2 µM | DMS-114 24.6 µM | DMS-273 56 µM | HOP-18 > 100 µM | LXFL 529 > 100 µM | M19-MEL > 100 µM | RXF 631 > 100 µM | SNB-78 > 100 µM | XF498 > 100 µM

Cc1ccc2ccc(-c3ccccc3)c3c2c1C(=O)c1ccccc1C3=O
inactive: DLD-1 > 100 µM | DMS-114 > 100 µM | DMS-273 53.8 µM | HOP-18 54.6 µM | LXFL 529 > 100 µM | M19-MEL 76.2 µM | SNB-78 > 100 µM | XF498 15.8 µM

CN(C)CCC(CCN(C)C)=NO
inactive: DLD-1 > 100 µM | DMS-114 > 100 µM | DMS-273 > 100 µM | HOP-18 > 100 µM | LXFL 529 > 100 µM | M19-MEL > 100 µM | RXF 631 > 100 µM | SNB-78 > 100 µM

CN1C(c2ccccc2)CC(=O)C(N)C1c1ccccc1 (stereo not drawn)
inactive: DLD-1 30.2 µM | DMS-273 23.4 µM | HOP-18 37.4 µM | LXFL 529 17.6 µM | M19-MEL 22.7 µM | SNB-78 23.7 µM | XF498 14.7 µM

CSC1=NC=CCN1C
inactive: DLD-1 > 100 µM | DMS-114 > 100 µM | DMS-273 > 100 µM | HOP-18 > 100 µM | LXFL 529 > 100 µM | M19-MEL > 100 µM

CCCCCCCCC(=O)CCCCCCCCC(=O)O
inactive: DLD-1 20.1 µM | DMS-114 23 µM | DMS-273 25.3 µM | HOP-18 19.2 µM | LXFL 529 27 µM | M19-MEL 47.5 µM | RXF 631 21 µM | SNB-78 > 100 µM | XF498 34.2 µM

COC1CCCc2c(OC(C)=O)ccc(OC(C)=O)c21 (stereo not drawn)
inactive: DMS-114 > 100 µM | LXFL 529 > 100 µM | SNB-78 36 µM

CCCCCCCC/C=C1\CCC(CN(C)C)C1=O (stereo not drawn)
inactive: DLD-1 2.16 µM | DMS-114 4.01 µM | DMS-273 2.43 µM | HOP-18 19.5 µM | LXFL 529 1.61 µM | M19-MEL 3.36 µM | RXF 631 5.64 µM | SNB-78 7.45 µM | XF498 6.22 µM

CC(=O)OCC12CC(CC1OC(C)=O)c1ccccc12 (stereo not drawn)
inactive: DMS-114 > 100 µM | DMS-273 > 100 µM | HOP-18 > 100 µM | LXFL 529 > 100 µM | M19-MEL > 100 µM | RXF 631 > 100 µM

O=C1C2C3C=CC(C2C(=O)N1COP(=O)(O)O)C1C2C(=O)N(COP(=O)(O)O)C(=O)C2C31 (stereo not drawn)
inactive: DLD-1 > 49.2 µM | DMS-114 > 41.7 µM | DMS-273 > 41.4 µM | HOP-18 > 100 µM | LXFL 529 > 100 µM | M19-MEL > 100 µM | SNB-78 > 100 µM | XF498 > 100 µM

CCOC(=O)C(Cc1cn(S(=O)(=O)c2ccccc2)c2ccccc12)(NC(C)=O)C(=O)OCC
inactive: DLD-1 40.1 µM | DMS-114 23.9 µM | DMS-273 35 µM | LXFL 529 27.7 µM | M19-MEL 40.7 µM | XF498 29.7 µM
